Measured values reported in patent US20250340560A1, “SUBSTITUTED PYRAZOLO[1,5-a]PYRIMIDINES AS BRUTON'S TYROSINE KINASE MODULATORS” (BEIGENE SWITZERLAND GMBH, priority 2013, published 2025).
Structures can show the parent of a compound that is named as a salt.

These molecules were tested against Recombinant Btk (Homo sapiens (Human), UniProt Q06187) (assay: BTK kinase assay (TR-FRET)). Conditions: IC50 (nM) Btk, 1 hour pre-incubation, ATP at Km.
Chain of Recombinant Btk (Q06187 whole entry): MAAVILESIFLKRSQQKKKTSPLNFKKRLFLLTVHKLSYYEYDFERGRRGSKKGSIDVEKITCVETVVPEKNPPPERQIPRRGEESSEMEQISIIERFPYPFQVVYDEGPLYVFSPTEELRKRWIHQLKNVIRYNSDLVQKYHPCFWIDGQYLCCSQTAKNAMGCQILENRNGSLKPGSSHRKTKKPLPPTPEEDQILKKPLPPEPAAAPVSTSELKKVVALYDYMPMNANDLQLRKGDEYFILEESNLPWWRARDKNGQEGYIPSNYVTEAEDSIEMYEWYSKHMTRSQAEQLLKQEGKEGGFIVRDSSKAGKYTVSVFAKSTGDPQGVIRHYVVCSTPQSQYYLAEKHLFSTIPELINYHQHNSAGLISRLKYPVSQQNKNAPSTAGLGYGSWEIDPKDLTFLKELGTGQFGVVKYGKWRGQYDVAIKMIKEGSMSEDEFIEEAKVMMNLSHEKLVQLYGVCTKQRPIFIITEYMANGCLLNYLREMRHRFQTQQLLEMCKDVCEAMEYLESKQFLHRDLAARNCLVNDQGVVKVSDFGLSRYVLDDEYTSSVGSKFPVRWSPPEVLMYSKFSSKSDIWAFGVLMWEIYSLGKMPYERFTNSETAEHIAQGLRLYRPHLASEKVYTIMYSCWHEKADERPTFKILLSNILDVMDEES

`C=CC(=O)Nc1ccccc1C1CCNc2c(C(N)=O)c(-c3ccc(OCc4ccccc4)cc3)nn21` (single isomer, unassigned) [Compound 10b] showed an IC50 of 42 nM.

Same assay, conditions: read-out: IC50 (nM) Btk; 1 hour pre-incubation, ATP at Km

Going from `C=CC(=O)N1CCc2[nH]c3c(C(N)=O)c(-c4ccc(OCC5CC5)cc4)nn3c2C1` [Compound 127, 7-acryloyl-2-(4-(cyclopropylmethoxy)phenyl)-5,6,7,8-tetrahydro-4H-pyrazolo[5′,1′:2,3]imidazo[4,5-c]pyridine-3-carboxamide] to `C=CC(=O)N1CCc2[nH]c3c(C(N)=O)c(-c4ccc(OCc5ccccc5)cc4)nn3c2C1` [Compound 126, 7-Acryloyl-2-(4-(benzyloxy)phenyl)-5,6,7,8-tetrahydro-4H-pyrazolo[5′,1′:2,3]imidazo[4,5-c]pyridine-3-carboxamide], the IC50 falls from 300 nM to 20 nM (15-fold). The second is the more potent here.

Going from `C=CC(=O)Nc1ccccc1C1CCNc2c(C(N)=O)c(-c3ccc(Cl)c(OC)c3)nn21` (stereo not shown) [Compound 160, 7-(2-Acrylamidophenyl)-2-(4-chloro-3-methoxyphenyl)-4,5,6,7-tetrahydropyrazolo[1,5-a]pyrimidine-3-carboxamide] to `C=CC(=O)Nc1ccccc1C1CCNc2c(C(N)=O)c(-c3ccc(OC)c(OC)c3)nn21` (stereo not shown) [Compound 168, 7-(2-Acrylamidophenyl)-2-(3,4-dimethoxyphenyl)-4,5,6,7-tetrahydropyrazolo[1,5-a]pyrimidine-3-carboxamide], the IC50 rises from 0.49 nM to 3.2 nM (6.5-fold).

Compared with `NCC1CCNc2c(C(N)=O)c(-c3cnn(Cc4ccccc4)c3)nn21` (stereo not shown) [Compound 36, 7-(Aminomethyl)-2-(1-benzyl-1H-pyrazol-4-yl)-4,5,6,7-tetrahydro pyrazolo[1,5-a]pyrimidine-3-carboxamide trifluoroacetate], `C=CC(=O)NCC1CCNc2c(C(N)=O)c(-c3cnn(Cc4ccccc4)c3)nn21` (stereo not shown) [Compound 37, 7-(Acrylamidomethyl)-2-(1-benzyl-1H-pyrazol-4-yl)-4,5,6,7-tetrahydropyrazolo[1,5-a]pyrimidine-3-carboxamide] is lower in IC50: over 10000 nM for the first, 640 nM for the second.

Compared with `CN(C)C/C=C/C(=O)N1CCc2c([nH]c3c(C(N)=O)c(-c4ccc(Oc5ccccc5)cc4)nn23)C1` [Compound 64, (E)-6-(4-(Dimethylamino)but-2-enoyl)-2-(4-phenoxyphenyl)-5,6,7,8-tetrahydro-4H-pyrazolo[1′,5′:1,2]imidazo[4,5-c]pyridine-3-carboxamide trifluoroacetate], `CN(C)CCC(=O)N1CCc2[nH]c3c(C(N)=O)c(-c4ccc(Oc5ccccc5)cc4)nn3c2C1` [Compound 57, 7-(3-(Dimethylamino)propanoyl)-2-(4-phenoxyphenyl)-5,6,7,8-tetrahydro-4H-pyrazolo[5′,1′:2,3]imidazo[4,5-c]pyridine-3-carboxamide trifluoroacetate] is 220-fold higher in IC50: 0.17 nM for the first, 37 nM for the second. The first is the more potent here.

First: C=CC(=O)NCC1CCNc2c(C(N)=O)c(-c3ccc(OCc4ccccc4)c(OC)c3)nn21 (stereo not shown) [Compound 142, 7-(acrylamidomethyl)-2-(4-(benzyloxy)-3-methoxyphenyl)-4,5,6,7-tetrahydropyrazolo[1,5-a]pyrimidine-3-carboxamide]
Second: C=CC(=O)N1CC(C2CCNc3c(C(N)=O)c(-c4ccc(OCc5ccccc5)cc4)nn32)C1 (stereo not shown) [Compound 104, 7-(1-acryloylazetidin-3-yl)-2-(4-(benzyloxy)phenyl)-4,5,6,7-tetrahydropyrazolo[1,5-a]pyrimidine-3-carboxamide]
The IC50 of the first is 21-fold higher: 54 nM for the first, 2.6 nM for the second.

Going from `C=CC(=O)Nc1ccccc1C1CCNc2c(C(N)=O)c(-c3ccc(Cl)c(F)c3)nn21` (stereo not shown) [Compound 154, 7-(2-Acrylamidophenyl)-2-(4-chloro-3-fluorophenyl)-4,5,6,7-tetrahydropyrazolo[1,5-a]pyrimidine-3-carboxamide] to `C=CC(=O)Nc1ccccc1C1CCNc2c(C(N)=O)c(-c3ccccc3)nn21` (stereo not shown) [Compound 150, 7-(2-Acrylamidophenyl)-2-phenyl-4,5,6,7-tetrahydropyrazolo[1,5-a]pyrimidine-3-carboxamide], the IC50 rises from 1.2 nM to 4.7 nM (3.9-fold). The first is the more potent here.

Going from `NC(=O)c1c(-c2ccc(Oc3ccccc3)cc2)nn2c1NCCc1cc([N+](=O)[O-])ccc1-2` [Compound 70, 8-Nitro-2-(4-phenoxyphenyl)-5,6-dihydro-4H-benzo[f]pyrazolo[1,5-a][1,3]diazepine-3-carboxamide] to `NC(=O)c1c(-c2ccc(Oc3ccccc3)cc2)nn2c1NCCC2c1cccnc1` (stereo not shown) [Compound 101, 2-(4-phenoxyphenyl)-7-(pyridin-3-yl)-4,5,6,7-tetrahydropyrazolo[1,5-a]pyrimidine-3-carboxamide], the IC50 rises from 19 nM to 550 nM (29-fold). The first is the more potent here.

Going from `C=CC(=O)Nc1cc(C2CCNc3c(C(N)=O)c(-c4ccc(Oc5ccccc5)cc4)nn32)ccc1Cl` (stereo not shown) [Compound 97, 7-(3-acrylamido-4-chlorophenyl)-2-(4-phenoxyphenyl)-4,5,6,7-tetrahydropyrazolo[1,5-a]pyrimidine-3-carboxamide] to `C=CC(=O)N(C)c1ccccc1C1CCNc2c(C(N)=O)c(-c3ccc(Oc4ccc(F)cc4)cc3)nn21` (stereo not shown) [Compound 16, 2-(4-(4-Fluorophenoxy)phenyl)-7-(2-(N-methylacrylamido)phenyl)-4,5,6,7-tetrahydropyrazolo[1,5-a]pyrimidine-3-carboxamide], the IC50 rises from 1.1 nM to 19 nM (17-fold). The first is the more potent here.

Going from `NC(=O)c1c(-c2ccc(Oc3ccccc3)cc2)nn2c1[nH]c(=O)c1ccc(N)cc12` [Compound 79, 8-Amino-5-oxo-2-(4-phenoxyphenyl)-4,5-dihydropyrazolo[1,5-a]quinazoline-3-carboxamide] to `C=CC(=O)Nc1ccc2c(c1)c(=O)[nH]c1c(C(N)=O)c(-c3ccc(Oc4ccccc4)cc3)nn12` [Compound 78, 7-Acrylamido-5-oxo-2-(4-phenoxyphenyl)-4,5-dihydropyrazolo[1,5-a]quinazoline-3-carboxamide], the IC50 falls from 50 nM to 21 nM (2.4-fold).

`CC#CC(=O)N1CC(C2CCNc3c(C(N)=O)c(-c4ccc(Oc5ccccc5)cc4)nn32)C1` (stereo not shown) [Compound 184, 7-(1-(But-2-ynoyl)azetidin-3-yl)-2-(4-phenoxyphenyl)-4,5,6,7-tetrahydropyrazolo[1,5-a]pyrimidine-3-carboxamide] and `NC(=O)c1c(-c2ccc(Oc3ccccc3)cc2)nn2c1NCC[C@H]2C1CCN(C(=O)CCCl)CC1` [Compound 177, (S)-7-(1-(3-chloropropanoyl)piperidin-4-yl)-2-(4-phenoxyphenyl)-4,5,6,7-tetrahydropyrazolo[1,5-a]pyrimidine-3-carboxamide] are within 1.5-fold of each other in IC50: 4.7 nM for the first, 5.7 nM for the second.

`C=CC(=O)N1CC(C2CCNc3c(C(N)=O)c(-c4ccc(Oc5ccc(Cl)cc5)cc4)nn32)C1` (stereo not shown) [Compound 106, 7-(1-acryloylazetidin-3-yl)-2-(4-(4-chlorophenoxy)phenyl)-4,5,6,7-tetrahydropyrazolo[1,5-a]pyrimidine-3-carboxamide] and `C=CC(=O)N1CC(C2(C)CCNc3c(C(N)=O)c(-c4ccc(Oc5ccccc5)cc4)nn32)C1` (stereo not shown) [Compound 175, 7-(1-Acryloylazetidin-3-yl)-7-methyl-2-(4-phenoxyphenyl)-4,5,6,7-tetrahydropyrazolo[1,5-a]pyrimidine-3-carboxamide] are within 1.5-fold of each other in IC50: 1.4 nM for the first, 1.2 nM for the second.

Compared with `CC(C)(C)OC(=O)N1CCC(C2CCNc3c(C(N)=O)c(-c4ccc(Oc5ccccc5)cc4)nn32)CC1` (stereo not shown) [Compound 25, 7-(1-(Tert-butoxycarbonyl)piperidin-4-yl)-2-(4-phenoxyphenyl)-4,5,6,7-tetrahydropyrazolo[1,5-a]pyrimidine-3-carboxamide], `NC(=O)c1c(-c2ccc(Oc3ccccc3)cc2)nn2c1NCC[C@H]2C1CCN(C(=O)C#CCN2CCCC2)CC1` [Compound 187, (S)-2-(4-Phenoxyphenyl)-7-(1-(4-(pyrrolidin-1-yl)but-2-ynoyl)piperidin-4-yl)-4,5,6,7-tetrahydropyrazolo[1,5-a]pyrimidine-3-carboxamide] is 1500-fold lower in IC50: 3100 nM for the first, 2.1 nM for the second. The second is the more potent here.

Compared with `C=CC(=O)NC1CNc2c(C(N)=O)c(-c3ccc(Oc4ccccc4)cc3)nn2C1` (stereo not shown) [Compound 85, 6-Acrylamido-2-(4-phenoxyphenyl)-4,5,6,7-tetrahydropyrazolo[1,5-a]pyrimidine-3-carboxamide], `NCC1CCNc2c(C(N)=O)c(-c3ccc(Oc4ccccc4)cc3)nn21` (stereo not shown) [Compound 32, 7-(Aminomethyl)-2-(4-phenoxyphenyl)-4,5,6,7-tetrahydropyrazolo [1,5-a]pyrimidine-3-carboxamide] is 53-fold higher in IC50: 32 nM for the first, 1700 nM for the second.

Going from `NC(=O)c1c(-c2ccc(Oc3ccccc3)cc2)nn2c1NCCC21CCNCC1` [Compound 42, 2′-(4-Phenoxyphenyl)-5′,6′-dihydro-4′H-spiro[piperidine-4,7′-pyrazolo [1,5-a]pyrimidine]-3′-carboxamide trifluoroacetate] to `NC(=O)c1c(-c2ccc(Oc3ccccc3)cc2)nn2c1NCC21CN(Cc2ccccc2)C1` [Compound 44, 1-Benzyl-6′-(4-phenoxyphenyl)-1′,2′-dihydrospiro[azetidine-3,3′-imidazo[1,2-b]pyrazole]-7′-carboxamide], the IC50 falls from 330 nM to 220 nM (1.5-fold). The second is the more potent here.

Compared with `CC#CC(=O)NCC1CCNc2c(C(N)=O)c(-c3ccc(Oc4ccc(F)cc4F)cc3)nn21` (stereo not shown) [Compound 190, 7-(But-2-ynamidomethyl)-2-(4-(2,4-difluorophenoxy)phenyl)-4,5,6,7-tetrahydropyrazolo[1,5-a]pyrimidine-3-carboxamide], `CNc1ccccc1C1CCNc2c(C(N)=O)c(-c3ccc(Oc4ccc(F)cc4)cc3)nn21` (stereo not shown) [Compound 15, 2-(4-(4-Fluorophenoxy)phenyl)-7-(2-(methylamino)phenyl)-4,5,6,7-tetrahydropyrazolo[1,5-a]pyrimidine-3-carboxamide] is 71-fold higher in IC50: 38 nM for the first, 2700 nM for the second.

First: C=CC(=O)Nc1ccccc1C1CCNc2c(C(N)=O)c(-c3cc(OC)c(OC)c(OC)c3)nn21 (stereo not shown) [Compound 167, 7-(2-Acrylamidophenyl)-2-(3,4,5-trimethoxyphenyl)-4,5,6,7-tetrahydropyrazolo[1,5-a]pyrimidine-3-carboxamide]
Second: NC(=O)c1c(-c2ccc(OCc3ccccc3)cc2)nn2c1NCCC2c1ccccc1N (stereo not shown) [Compound 9, 7-(2-Aminophenyl)-2-(4-(benzyloxy)phenyl)-4,5,6,7-tetrahydro pyrazolo[1,5-a]pyrimidine-3-carboxamide]
The IC50 of the first is 1500-fold lower: 2.4 nM for the first, 3700 nM for the second. The first is the more potent here.

In the case of `NC(=O)c1c(-c2ccc(OCc3ccccc3)cc2)nn2c3c([nH]c12)CCNC3` [Compound 125, 2-(4-(benzyloxy)phenyl)-5,6,7,8-tetrahydro-4H-pyrazolo[5′,1′:2,3]imidazo[4,5-c]pyridine-3-carboxamide formate], the IC50 is reported as 5000 nM.
